Data set [1] is described as follows: Solubility in coating solvent.
A short description of data set [2]: UV absorption spectra measured in solution. The format is physicochemical. To be noted: for ε (molar extinction coefficient): at absorption maximum; for Δλ (solvent-induced wavelength shift): |λDMF−λdioxane|. From the text: In the case of a write-once optical data carrier according to the invention which is written on and read by means of the light of a blue laser, preference is given to merocyanine dyes whose absorption maximum λmax1 is in the range from 340 to 410 nm, […] half of the […] one tenth of the absorbance value at λmax1 are preferably not more than 50 nm apart. Such a merocyanine dye preferably has no longer-wavelength maximum λmax2 up to a wavelength of 500 nm, particularly preferably up to 550 nm, very particularly preferably up to 600 nm.
The absorption spectra are measured, for example, in solution.
Suitable merocyanines having the required spectral properties are, in particular, those in which the dipole moment change Δμ=|μg−μag|, i.e. the positive difference between the dipole moments in the ground state and in the first excited state, is very small, preferably <5 D, particularly preferably <2 D. A method of determining such a dipole moment change Δμ is described, for example, in F. Würthner et al., Angew. Chem. 1997, 109, 2933, and in the literature cited therein. A low solvent-induced wavelength shift (dioxane/DMF) is likewise a suitable selection criterion. Preference is given to merocyanines whose solvent-induced wavelength shift Δλ=|λDMF−λdioxane|, i.e. the positive difference between the absorption wavelengths in the solvents dimethylformamide and dioxane, is <20 nm, particularly preferably <10 nm, very particularly preferably <5 nm

Setting [3] is: in TFP (2,2,3,3-tetrafluoropropanol).

Marks after values point to notes of the source that are not given here.

Compound `CC1=C([n+]2ccccc2)C(=O)NC(=O)/C1=C/C=C1\N(C)c2ccccc2C1(C)C` [Example 3] showed a Solubility in data set [1] (setting [3]) above 2%. Also, in data set [2], the “ε (molar extinction coefficient)” value worked out at 86510 L/mol/cm. The same compound registered a UV λmax in data set [2] (in methanol) of 513 nm. The compound further displayed a λ1/2-λ1/10 in data set [2] (short wavelength flank) of 38 nm.

Consider `CCOC(=O)C1=C(C#N)C(=O)N(C)C(=O)/C1=C/C=C1\N(C)c2ccccc2C1(C)C` [Example 1], for which the Solubility in data set [1] (setting [3]) is listed as above 2%. Besides, in data set [2], the “ε (molar extinction coefficient)” value came out at 56010 L/mol/cm and the “Δλ (solvent-induced wavelength shift)” value was found to be 22 nm. For the same compound, the “UV λmax” value in data set [2] (in DMF) is listed as 609 nm. Further, the “UV λmax” value in data set [2] (in dioxane) is 587 nm. The λ1/2-λ1/10 in data set [2] (long wavelength flank) was found to be 27 nm.

In data set [1] (setting [3]), `CCOC(=O)C1=C(C#N)C(=O)N(C)C(=O)/C1=C/C=C/N(C)C` [Example 2] registered a Solubility above 2%. Moreover, in data set [2], the “ε (molar extinction coefficient)” value was 31630 L/mol/cm and the “Δλ (solvent-induced wavelength shift)” value turned out to be 25 nm. Also, the “UV λmax” value in data set [2] (in DMF) turned out to be 567 nm. Also, the “UV λmax” value in data set [2] (in dioxane) is reported as 542 nm. Besides, the λ1/2-λ1/10 in data set [2] (short wavelength flank) is on record as 42 nm.

For the compound `CCCCCCCCCCCCN1C(=O)/C(=C/c2ccc(N(C)C)o2)C(=O)N(C)C1=O` [Example 4], in data set [1] (in benzyl alcohol), the Solubility was above 1%. The “ε (molar extinction coefficient)” value in data set [2] amounted to 53360 L/mol/cm. For the same compound, the “UV λmax” value in data set [2] (in dioxane) came out at 483 nm. The λ1/2-λ1/10 in data set [2] (short wavelength flank) was 32 nm.

In turn, `CCCCN1C(=O)C(=CC=CN(C)C)C(C(F)(F)F)=C(C#N)C1=O` [Example 71] showed a ε in data set [2] (Table 3) of 89100 L/mol/cm. The λmax in data set [2] (Table 3, in DMF) is recorded as 564^6) nm.

`CCN1CCCC1=CC=C(C#N)[n+]1ccccc1.[O-][Cl+3]([O-])([O-])[O-]` [Example 59] showed a ε in data set [2] (Table 2) of 24400 L/mol/cm. Further, the λmax in data set [2] (Table 2, in methanol) was 462^5) nm.

`CCCCN1C(=O)C(=CC=CN(C)c2ccccc2)C(C)=C(C#N)C1=O` [Example 72] came in with a ε in data set [2] (Table 3) of 79685 L/mol/cm. This compound also displayed a λmax in data set [2] (Table 3, in dioxane) of 480 nm. For the same compound, the Δλ in data set [2] (Table 3, |λDMF-λdioxane|) is recorded as 1.3 nm.

`C=C(C)C(=O)OCCN1C(=O)C(=CC=CN2CCOCC2)C(C)=C(C#N)C1=O` [Example 76] displayed a ε in data set [2] (Table 3) of 89800 L/mol/cm. The λmax in data set [2] (Table 3, in dioxane) stood at 458 nm. Besides, the λ1/2-λ1/10 in data set [2] (Table 3, on the short wavelength flank) is 28^3) nm.

Regarding `CCCCCCCCCCCCN1C(=O)C(=Cc2ccc(N(C)C)o2)C(=O)N(C)C1=O` [Example 15], in data set [2] (Table 1), the ε amounted to 53360 L/mol/cm. Also, the λmax in data set [2] (Table 1, in dioxane) is 483 nm.

For the compound `CCOC(=O)C(C#N)=c1[nH]c(=O)c(=CC=CN(C)C)c(C)c1C(=O)OCC` [Example 85], the λmax in data set [2] (Table 3, in methanol) was 509^5) nm.

On to `CCCCN(CCCC)c1ccc(C=C2C(=O)N(C)C(=O)C(C#N)=C2C)o1` [Example 10], for which, in data set [2] (Table 1), the ε stood at 106640 L/mol/cm. For the same compound, the λmax in data set [2] (Table 1, in dioxane) turned out to be 539 nm.

As for `CCCCCCN1C(=O)C(=Cc2ccc(N(C)C)o2)C(C)=C(C#N)C1=O` [Example 16], the ε in data set [2] (Table 1) is 128960 L/mol/cm. For the same compound, the λmax in data set [2] (Table 1, in dioxane) stood at 535 nm. The compound further gave a Δλ in data set [2] (Table 1, |λDMF-λdioxane|) of 1.3 nm.

`CCN1C(=O)C(=CC=CC=CN(C)C)C(C)=C(C#N)C1=O` [Example 84] displayed a ε in data set [2] (Table 3) of 149800 L/mol/cm. The λmax in data set [2] (Table 3, in DMF) is 552^6) nm.

Compound `CCN(CC)c1ncc(C=C2C(=O)c3ccccc3C2=O)s1` [Example 32] displayed a ε in data set [2] (Table 1) of 62026 L/mol/cm. The compound also came in with a λmax in data set [2] (Table 1, in dioxane) of 472 nm. For the same compound, the λ1/2-λ1/10 in data set [2] (Table 1, on the short wavelength flank) was 42^3) nm.

`CCCCN(CCCC)c1ccc(C=C2C(=O)N(CCOC)C(=O)C(C#N)=C2C)s1` [Example 14]: the ε in data set [2] (Table 1) came out at 112260 L/mol/cm. For the same compound, in data set [2] (Table 1, in dioxane), the λmax is 535 nm. The λ1/2-λ1/10 in data set [2] (Table 1, on the long wavelength flank) is 13^4) nm.

In the case of `CCOC(=O)C(C#N)=c1[nH]c(=O)c(=CC=C2N(C)c3ccc(C(=O)OC)cc3C2(C)C)c(C)c1C(=O)OCC` [Example 65], the ε in data set [2] (Table 2) turned out to be 142900 L/mol/cm. Moreover, the λmax in data set [2] (Table 2, in methanol) is recorded as 587^5) nm.

On to `CCN1C(=O)C(=Cc2ccc(N3CCCC3)o2)C(C)=C(C#N)C1=O` [Example 17], for which the ε in data set [2] (Table 1) came out at 115603 L/mol/cm. For the same compound, the λmax in data set [2] (Table 1, in DMF) is 536^6) nm. The compound further displayed a Δλ in data set [2] (Table 1, |λDMF-λdioxane|) of 2 nm.
